Reference: ChEMBL document CHEMBL1138798, “A docking score function for estimating ligand-protein interactions: application to acetylcholinesterase inhibition” (J Med Chem, 2004)

Columns and labels:
Acetylcholinesterase [1] = target: T1, Acetylcholinesterase (Homo sapiens, UniProt P22303)
Description: Inhibitory activity against Acetylcholinesterase enzyme using human AChE assay

Acetylcholinesterase [2] = target: T1, Acetylcholinesterase; remark: listed apart in the source
Description: Binding affinity towards Acetylcholinesterase

T1 sequence (P22303 whole entry): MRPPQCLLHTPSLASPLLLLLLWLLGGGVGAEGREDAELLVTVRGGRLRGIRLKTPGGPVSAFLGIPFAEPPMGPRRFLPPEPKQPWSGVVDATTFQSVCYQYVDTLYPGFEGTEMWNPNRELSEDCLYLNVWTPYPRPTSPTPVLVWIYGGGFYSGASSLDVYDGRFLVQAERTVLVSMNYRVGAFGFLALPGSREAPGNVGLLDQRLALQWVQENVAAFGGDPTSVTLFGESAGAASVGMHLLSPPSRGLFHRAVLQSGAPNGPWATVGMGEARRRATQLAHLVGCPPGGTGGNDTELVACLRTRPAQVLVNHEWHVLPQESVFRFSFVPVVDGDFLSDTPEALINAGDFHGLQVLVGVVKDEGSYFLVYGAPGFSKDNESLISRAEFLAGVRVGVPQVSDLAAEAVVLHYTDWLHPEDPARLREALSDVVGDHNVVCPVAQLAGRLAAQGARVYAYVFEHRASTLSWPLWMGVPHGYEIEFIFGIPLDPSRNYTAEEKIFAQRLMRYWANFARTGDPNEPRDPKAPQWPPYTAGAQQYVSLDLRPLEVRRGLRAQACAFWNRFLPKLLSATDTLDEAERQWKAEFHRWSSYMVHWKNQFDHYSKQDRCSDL

| SMILES | IC50 (Acetylcholinesterase [1]) | Ki (Acetylcholinesterase [2]) |
| --- | --- | --- |
| COc1cc2c(cc1OC)SC(C(=O)CCc1cc[n+](Cc3coc([N+](=O)[O-])c3)cc1)C2 (stereo unspecified) | 4.5 nM | 4.47 nM |
| COc1cc2c(cc1OC)SC(C(=O)CCc1cc[n+](Cc3ccsc3)cc1)C2 (stereo unspecified) | 6 nM | 6.03 nM |
| COc1cc2onc(CCC3CCN(Cc4ccccc4)CC3)c2cc1C | 5.8 nM | 5.75 nM |
| COc1cc2cc(C(=O)C3CCC[N+](C)(Cc4ccccc4)CC3)sc2cc1OC (stereo unspecified) | 8 nM | 7.94 nM |
| C[N+]1(Cc2ccccc2)CCC(CCC(=O)c2ccc3c(c2)OCCO3)CC1 (stereo unspecified) |  | 100 nM |
| CC(=O)Nc1ccc2c(CCC3CCN(Cc4ccccc4)CC3)noc2c1 |  | 2.82 nM |
| O=C1CCc2cc3c(CCC4CCN(Cc5ccccc5)CC4)noc3cc2N1 |  | 0.575 nM |
| COc1cc2c(cc1OC)SC(C(=O)CCc1cc[n+](C)cc1)C2 (stereo unspecified) | 900 nM | 891 nM |
| COc1cc2cc(C(=O)CCC3CC[N+](C)(Cc4ccccc4)CC3)n(C)c2cc1OC (stereo unspecified) |  | 120 nM |
| COc1cc2cc(C(=O)C3CCC[N+](C)(Cc4ccc([N+](=O)[O-])o4)CC3)sc2cc1OC (stereo unspecified) | 32 nM | 32.4 nM |
| Brc1ccc2c(CCC3CCN(Cc4ccccc4)CC3)noc2c1 |  | 50.1 nM |
| COc1cc2c(cc1OC)C(=O)C(C1CC[N+](C)(Cc3ccccc3)CC1)=C2 (stereo unspecified) | 250 nM | 251 nM |
| COc1ccc2cc(C(=O)CCC3CC[N+](C)(Cc4ccccc4)CC3)ccc2c1 (stereo unspecified) |  | 50.1 nM |
| COc1cc2cc(C(=O)C3CC[N+](C)(Cc4ccccc4)CCC3O)sc2cc1OC (stereo unspecified) | 43 nM | 42.7 nM |
| CCOCC[n+]1ccc(CCC(=O)C2Cc3cc(OC)c(OC)cc3S2)cc1 (stereo unspecified) | 7 nM | 7.08 nM |
| C[N+]1(Cc2ccccc2)CCC(CCC(=O)c2ccc3c(c2)OCO3)CC1 (stereo unspecified) | 41.5 nM | 41.7 nM |
| COc1cc2c(cc1OC)SC(C(=O)CC(O)C1CC[N+](C)(Cc3ccccc3)CC1)C2 (stereo unspecified) | 190 nM | 191 nM |
| COc1cc2cc(C(=O)C3=CC[N+](C)(Cc4ccccc4)CC3)sc2cc1OC (stereo unspecified) | 520 nM | 525 nM |
| COCC[N+]1(C)CCCC(C(=O)c2cc3cc(OC)c(OC)cc3s2)CC1 (stereo unspecified) | 53 nM | 52.5 nM |
| COCC[n+]1ccc(CCC(=O)C2Cc3cc(OC)c(OC)cc3S2)cc1 (stereo unspecified) | 30 nM | 30.2 nM |
| O=C1Cc2cc3c(CCC4CCN(Cc5ccccc5)CC4)noc3cc2N1 [ICOPEZIL] |  | 0.331 nM |
| O=C1Cc2c(ccc3c(CCC4CCN(Cc5ccccc5)CC4)noc23)N1 |  | 3.63 nM |
| COc1cc2cc(C(=O)C3CCC[N+](C)(CC(=O)OC(C)(C)C)CC3)sc2cc1OC (stereo unspecified) | 79 nM | 79.4 nM |

| SMILES | IC50 (Acetylcholinesterase [1]) | Ki (Acetylcholinesterase [2]) |
| --- | --- | --- |
| COc1cc2c(cc1OC)SC(C(=O)CCc1cc[n+](Cc3ccc(F)cc3)cc1)C2 (stereo unspecified) | 2.6 nM | 2.57 nM |
| COc1cc2c(cc1OC)SC(CC1CC[N+](C)(Cc3ccccc3)CC1)C2 (stereo unspecified) | 30000 nM | 30200 nM |
| C=CC[n+]1ccc(CCC(=O)C2Cc3cc(OC)c(OC)cc3S2)cc1 (stereo unspecified) | 6.27 nM | 219 nM |
| N#Cc1ccc2c(CCC3CCN(Cc4ccccc4)CC3)noc2c1 |  | 100 nM |
| CN1C(=O)Cc2cc3onc(CCC4CCN(Cc5ccccc5)CC4)c3cc21 | 0.48 nM | 0.479 nM |
| COc1cc2cc(C3CC[N+](C)(Cc4ccccc4)CC3O)sc2cc1OC (stereo unspecified) | 19600 nM | 19500 nM |
| O=S(=O)(Nc1ccc2c(CCC3CCN(Cc4ccccc4)CC3)noc2c1)c1ccccc1 |  | 14.1 nM |
| COc1cc2c(cc1OC)SC(C(=O)CCc1cc[n+](CC3CCC3)cc1)C2 (stereo unspecified) | 40 nM | 39.8 nM |
| Cc1ccc2onc(CCC3CCN(Cc4ccccc4)CC3)c2c1 |  | 7.76 nM |
| COc1cc2c(cc1OC)SC(C(=O)CCc1cc[n+](CC3CC3)cc1)C2 (stereo unspecified) | 110 nM | 110 nM |
| Cc1cc(C(=O)CCC2CC[N+](C)(Cc3ccccc3)CC2)nn1-c1ccccc1 (stereo unspecified) |  | 21.9 nM |
| COc1cc2cc(C(=O)CC3CCCC[N+](C)(Cc4ccccc4)CC3)sc2cc1OC (stereo unspecified) | 110 nM | 110 nM |
| COc1cc2c(cc1OC)SC(C(=O)CC1C=CC[N+](C)(Cc3ccccc3)CC1)C2 (stereo unspecified) | 750 nM | 759 nM |
| COc1cc2cc(C(=O)C3CC[N+](C)(Cc4ccccc4)CCC3OC)sc2cc1OC (stereo unspecified) | 120 nM | 120 nM |
| COc1cc2cc(C(=O)C3CCC[N+](C)(CC#N)CC3)sc2cc1OC (stereo unspecified) | 1000 nM | 1000 nM |
| O=C1Cc2cc3onc(CCC4CCN(Cc5ccccc5)CC4)c3cc2N1 |  | 0.955 nM |
| O=C(CCc1cc[n+](Cc2ccccc2)cc1)c1ccc2c(c1)OCO2 | 240 nM | 240 nM |
| COc1cc2cc(C3=CC[N+](C)(Cc4ccccc4)CC3)sc2cc1OC (stereo unspecified) | 2670 nM | 2690 nM |
| C[N+]1(Cc2ccccc2)CCC(CCC(=O)c2ccc3c(c2)CCCCO3)CC1 (stereo unspecified) |  | 138 nM |
| COC(=O)C[N+]1(C)CCC(CCC(=O)C2Cc3cc(OC)c(OC)cc3S2)CC1 (stereo unspecified) | 54 nM | 53.7 nM |
| CCC[n+]1ccc(CCC(=O)C2Cc3cc(OC)c(OC)cc3S2)cc1 (stereo unspecified) | 2570 nM | 2570 nM |
| CC[n+]1ccc(CCC(=O)C2Cc3cc(OC)c(OC)cc3S2)cc1 (stereo unspecified) | 280 nM | 282 nM |
